Laboratory results published in PubChem BioAssay AID330 (DTP/NCI, 2004).
Where “and” joins values, the source holds several entries; their conditions need not be identical. Identical values can stand only once. Toxic doses and inconclusive results are not listed.

Tested on: P388 leukemia ip, CD2F1 mice, survival T/C
Assay: NCI In Vivo Anticancer Drug Screen. Data for tumor model P388 Leukemia (intraperitoneal) in CD2F1 (CDF1) mice
Conditions: endpoint: median survival time, higher = longer survival
Summary of the method: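 Mice carrying the transplanted tumor received test compound or vehicle. Survival was recorded in each group, and the value is the treated-group measurement divided by that of the vehicle-treated control group.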

[1] = dose: 50.0 mg/kg/injection, schedule: Q01DX005 (ip), vehicle: saline with Tween-80
[2] = dose: 100.0 mg/kg/injection, schedule: Q01DX005 (ip), vehicle: saline with Tween-80
[3] = dose: 200.0 mg/kg/injection, schedule: Q01DX005 (ip), vehicle: saline with Tween-80
[4] = dose: 12.5 mg/kg/injection, schedule: Q01DX009 (ip), vehicle: distilled water + Tween-80
[5] = dose: 60.0 mg/kg/injection, schedule: Q01DX005 (ip), vehicle: saline with Tween-80
[6] = dose: 120.0 mg/kg/injection, schedule: Q01DX005 (ip), vehicle: saline with Tween-80
[7] = dose: 240.0 mg/kg/injection, schedule: Q01DX005 (ip), vehicle: saline with Tween-80
[8] = dose: 50.0 mg/kg/injection, schedule: Q01DX005 (ip), vehicle: Klucel (hydroxypropylcellulose) (HPC)
[9] = dose: 100.0 mg/kg/injection, schedule: Q01DX005 (ip), vehicle: Klucel (hydroxypropylcellulose) (HPC)
[10] = dose: 200.0 mg/kg/injection, schedule: Q01DX005 (ip), vehicle: Klucel (hydroxypropylcellulose) (HPC)
[11] = dose: 50.0 mg/kg/injection, schedule: Q01DX009 (ip), vehicle: saline with Tween-80
[12] = dose: 100.0 mg/kg/injection, schedule: Q01DX009 (ip), vehicle: saline with Tween-80
[13] = dose: 200.0 mg/kg/injection, schedule: Q01DX009 (ip), vehicle: saline with Tween-80
[14] = dose: 100.0 mg/kg/injection, schedule: Q04DX002 (ip), vehicle: saline with Tween-80
[15] = dose: 200.0 mg/kg/injection, schedule: Q04DX002 (ip), vehicle: saline with Tween-80
[16] = dose: 400.0 mg/kg/injection, schedule: Q04DX002 (ip), vehicle: saline with Tween-80

## COc1ccc2ncc(COC(C)=O)c(C)c2c1
[1]
  T/C: 99 % of control
[2]
  T/C: 99 % of control
[3]
  T/C: 93 % of control

## c1ccc(-c2c[s+]c(-c3ccccc3)s2)cc1
dose: 6.25 mg/kg/injection, schedule: Q01DX009 (ip), vehicle: distilled water + Tween-80
  T/C: 117 % of control
[4]
  T/C: 100 % of control
dose: 25.0 mg/kg/injection, schedule: Q01DX009 (ip), vehicle: distilled water + Tween-80
  T/C: 90 % of control
dose: 50.0 mg/kg/injection, schedule: Q01DX009 (ip), vehicle: distilled water + Tween-80
  T/C: 99 % of control
dose: 100.0 mg/kg/injection, schedule: Q01DX009 (ip), vehicle: distilled water + Tween-80
  T/C: 97 % of control

## C#CCSc1n[nH]c(-c2ccco2)n1
[5]
  T/C: 101 % of control
[6]
  T/C: 105 % of control
[7]
  T/C: 105 % of control

## CC(=O)NC[Si](C)(C)C
dose: 60.0 mg/kg/injection, schedule: Q01DX005 (ip), vehicle: saline
  T/C: 93 % of control
dose: 120.0 mg/kg/injection, schedule: Q01DX005 (ip), vehicle: saline
  T/C: 96 % of control
dose: 240.0 mg/kg/injection, schedule: Q01DX005 (ip), vehicle: saline
  T/C: 103 % of control

## NC12CCC(N)(c3ccccc31)c1ccccc12
dose: 60.0 mg/kg/injection, schedule: Q01DX005 (ip), vehicle: Klucel (hydroxypropylcellulose) (HPC)
  T/C: 93 % of control
dose: 120.0 mg/kg/injection, schedule: Q01DX005 (ip), vehicle: Klucel (hydroxypropylcellulose) (HPC)
  T/C: 98 % of control
dose: 240.0 mg/kg/injection, schedule: Q01DX005 (ip), vehicle: Klucel (hydroxypropylcellulose) (HPC)
  T/C: 98 % of control

## Cn1c(=O)[nH]c(Cl)c(NC=O)c1=O
dose: 25.0 mg/kg/injection, schedule: Q01DX005 (ip), vehicle: water
  T/C: 98 % of control
dose: 50.0 mg/kg/injection, schedule: Q01DX005 (ip), vehicle: water
  T/C: 103 % of control
dose: 100.0 mg/kg/injection, schedule: Q01DX005 (ip), vehicle: water
  T/C: 98 % of control
dose: 200.0 mg/kg/injection, schedule: Q01DX005 (ip), vehicle: water
  T/C: 109 % of control

## O=C1N=c2ccccc2=C1c1sc(=O)n(Cc2nc3ccccc3[nH]2)c1O
[8]
  T/C: 102 % of control
[9]
  T/C: 97 % of control
[10]
  T/C: 93 % of control

## O=C(O)/C(Cl)=C(\Cl)C(=O)Nc1c(Cl)cccc1Cl
[5]
  T/C: 101 % of control
[6]
  T/C: 100 % of control

## O=[N+]([O-])c1ccc2[nH]ncc2c1
[11]
  T/C: 100 % of control
[12]
  T/C: 100 % of control
[13]
  T/C: 110 % of control

## C=CC(C)(C)C1Oc2cc(OC)ccc2C(=O)C1c1ccc(OC)c(OC)c1O (configuration not stated)
dose: 100.0 mg/kg/injection, schedule: Q04DX003 (ip), vehicle: Klucel (hydroxypropylcellulose) (HPC)
  T/C: 99 % of control
dose: 200.0 mg/kg/injection, schedule: Q04DX003 (ip), vehicle: Klucel (hydroxypropylcellulose) (HPC)
  T/C: 98 % of control
dose: 400.0 mg/kg/injection, schedule: Q04DX003 (ip), vehicle: Klucel (hydroxypropylcellulose) (HPC)
  T/C: 96 % of control

## CCOC(=O)/C=C/C(=O)O.CCOC(=O)/C=C/C(=O)O.[Mn].[NH-]CC(=O)O
dose: 100.0 mg/kg/injection, schedule: Q04DX003 (ip), vehicle: saline
  T/C: 96 % of control
dose: 200.0 mg/kg/injection, schedule: Q04DX003 (ip), vehicle: saline
  T/C: 96 % of control
dose: 400.0 mg/kg/injection, schedule: Q04DX003 (ip), vehicle: saline
  T/C: 98 % of control

## CCc1ccccc1NC(=O)C(=O)CC(=O)c1ccc(Cl)s1
[14]
  T/C: 100 % of control
[15]
  T/C: 102 % of control
[16]
  T/C: 103 % of control

## CC1(CCl)Nc2ccccc2C(=O)N1c1ccccc1 (configuration not stated)
[11]
  T/C: 99 % of control
[12]
  T/C: 97 % of control
[13]
  T/C: 88 % of control

## COc1ccc(S(=O)(=O)N/N=C\c2cc(I)cc(I)c2O)cc1
[1]
  T/C: 101 % of control
[2]
  T/C: 102 % of control
[3]
  T/C: 100 % of control

## CC1(C)C=C(NC(=O)N2CC2)C(C)(C)N1O
dose: 6.25 mg/kg/injection, schedule: Q01DX009 (ip), vehicle: saline with Tween-80
  T/C: 100 % of control
dose: 12.5 mg/kg/injection, schedule: Q01DX009 (ip), vehicle: saline with Tween-80
  T/C: 103 % of control
dose: 25.0 mg/kg/injection, schedule: Q01DX009 (ip), vehicle: saline with Tween-80
  T/C: 103 % of control
[11]
  T/C: 117 % of control

## Cc1nc2ncn(-c3ccccc3)c2c(=O)n1C
[8]
  T/C: 95 % of control
[9]
  T/C: 90 % of control
[10]
  T/C: 95 % of control

## CCN(CC)CCOC(=O)c1c(C)oc2cc3c(C(=O)OCCN(CC)CC)c(C)oc3cc12
dose: 25.0 mg/kg/injection, schedule: Q01DX005 (ip), vehicle: Klucel (hydroxypropylcellulose) (HPC)
  T/C: 98 % of control
[8]
  T/C: 92 % of control
[9]
  T/C: 94 % of control
[10]
  T/C: 113 % of control

## CNCCNc1ccc(NCCNC)c2c1C(=O)c1ccccc1C2=O
dose: 2.0 mg/kg/injection, schedule: Q01DX009 (ip), vehicle: acid diluted with saline
  T/C: 183 % of control
dose: 4.0 mg/kg/injection, schedule: Q01DX009 (ip), vehicle: acid diluted with saline
  T/C: 175 % of control
dose: 8.0 mg/kg/injection, schedule: Q01DX009 (ip), vehicle: acid diluted with saline
  T/C: 175 % of control
[4]
  T/C: 200 % of control
dose: 16.0 mg/kg/injection, schedule: Q01DX009 (ip), vehicle: acid diluted with saline
  T/C: 86 % of control

## O=C(OC1OC(COCc2ccccc2)C(OCc2ccccc2)C(OCc2ccccc2)C1OCc1ccccc1)c1ccc([N+](=O)[O-])cc1 (configuration not stated)
dose: 100.0 mg/kg/injection, schedule: Q01DX001 (ip), vehicle: saline with Tween-80
  T/C: 92 % of control
dose: 200.0 mg/kg/injection, schedule: Q01DX001 (ip), vehicle: saline with Tween-80
  T/C: 90 % of control

## O=C1NC(=O)/C(=C2\CCOC2=O)N1
[11]
  T/C: 100 % of control
[12]
  T/C: 94 % of control
[13]
  T/C: 100 % of control

## O=c1ccnc(Nc2ccc[nH]c2=S)[nH]1
[8]
  T/C: 100 % of control
[5]
  T/C: 105 % of control
[9]
  T/C: 99 % of control
[6]
  T/C: 105 % of control
[10]
  T/C: 93 % of control
[7]
  T/C: 100 % of control

## Nc1nc(N)nc(Cl)n1
dose: 12.5 mg/kg/injection, schedule: Q01DX009 (ip), vehicle: Klucel (hydroxypropylcellulose) (HPC)
  T/C: 100 % of control and 91 % of control
dose: 25.0 mg/kg/injection, schedule: Q01DX009 (ip), vehicle: Klucel (hydroxypropylcellulose) (HPC)
  T/C: 101 % of control and 104 % of control
dose: 50.0 mg/kg/injection, schedule: Q01DX009 (ip), vehicle: Klucel (hydroxypropylcellulose) (HPC)
  T/C: 123 % of control and 91 % of control
dose: 100.0 mg/kg/injection, schedule: Q01DX009 (ip), vehicle: Klucel (hydroxypropylcellulose) (HPC)
  T/C: 104 % of control and 96 % of control

## COc1ccc(C=Nc2c(N)[nH]c(=S)[nH]c2=O)cc1
[14]
  T/C: 100 % of control
[15]
  T/C: 106 % of control
[16]
  T/C: 107 % of control
dose: 600.0 mg/kg/injection, schedule: Q04DX002 (ip), vehicle: saline with Tween-80
  T/C: 106 % of control

## O=S1(=O)N=C(N2CCOCC2)c2ccccc21
[1]
  T/C: 101 % of control
[2]
  T/C: 101 % of control
[3]
  T/C: 99 % of control

## O=C1/C(=C/c2cccnc2)Cc2ccccc21
dose: 12.5 mg/kg/injection, schedule: Q01DX009 (ip), vehicle: other
  T/C: 103 % of control
dose: 25.0 mg/kg/injection, schedule: Q01DX009 (ip), vehicle: other
  T/C: 103 % of control
dose: 50.0 mg/kg/injection, schedule: Q01DX009 (ip), vehicle: other
  T/C: 99 % of control
dose: 100.0 mg/kg/injection, schedule: Q01DX009 (ip), vehicle: other
  T/C: 99 % of control
dose: 200.0 mg/kg/injection, schedule: Q01DX009 (ip), vehicle: other
  T/C: 94 % of control

## O=C1CSC(c2ccc(Cl)cc2)N1CCN1C(=O)CSC1c1ccc(Cl)cc1 (configuration not stated)
dose: 100.0 mg/kg/injection, schedule: Q04DX003 (ip), vehicle: saline with Tween-80
  T/C: 95 % of control
dose: 200.0 mg/kg/injection, schedule: Q04DX003 (ip), vehicle: saline with Tween-80
  T/C: 93 % of control
dose: 400.0 mg/kg/injection, schedule: Q04DX003 (ip), vehicle: saline with Tween-80
  T/C: 88 % of control

## CCOC(=O)N[C@H]1CCc2cc(O)c(OC)c(OC)c2-c2ccc(SC)c(=O)cc21
dose: 1.25 mg/kg/injection, schedule: Q01DX009 (ip), vehicle: Klucel (hydroxypropylcellulose) (HPC)
  T/C: 120 % of control
dose: 10.0 mg/kg/injection, schedule: Q01DX009 (ip), vehicle: Klucel (hydroxypropylcellulose) (HPC)
  T/C: 109 % of control
